Laboratory results: US8715155B2, “Embryo development and survival” (University of Tennessee Research Foundation, priority 2005, dated 2014)
Like-named read-outs stand apart in the source and are kept apart here.

What was measured:
[1] = tested on: 16- to 32-cell pre-compacted (in vitro-produced) embryos; assay: Culture of pre-compacted (in vitro-produced) embryos with PGF2α or PGE2; assay type: cell-based, bovine; details: vs control
Experimental: Embryos are produced by a modified protocol for in vitro production of embryos described by Edwards and Hansen, Biol. Reprod. 55:340-346 (1996). Pre-compacted 16- to 32-cell stage embryos are rapidly washed in KSOM media (Biggers, J. D. 1991. J. Reprod. Fertil. 91:543) supplemented with polyvinyl alcohol (PVA) 3 mg/ml (0.3%). The embryos are evaluated for quality (normal shape, defined blastomeres, extruded blastomeres, cytoplasmic fragmentation, even cytoplasm), are evenly sorted in four groups (formed by embryos of good quality), are transferred to experimental treatments in a 4-well plate as described below, and are returned to the incubator (5.5% CO2, 7% O2, and 87.5% N2 at 38.5° C.). Embryos remain in each treatment for 4 additional days. Embryo development is assessed using IETS (International Embryo Transfer Society) guidelines for classification of bovine embryos.
Dilutions (i.e., treatments) of PGF2α (Cayman Chemical Co.; Ann Arbor, Mich.) are prepared to obtain 0, 1, 10 and 100 ng/mL. Treatments are placed in each well of a 4-well plate (500 μL/well) and equilibrated in the incubator (5.5% CO2, 7% O2, and 87.5% N2 at 38.5° C.) for at least 5 h prior to embryo placement. […]
Data are analyzed to test for blastocyst development and hatching rates using an incomplete block design and a randomized block design, respectively. […]

recipient cattle = details: intramuscular injection immediately prior to or after non-surgical embryo transfer; vs controls; cited from earlier work
[2] = tested on: progestin-supplemented cows; details: cited from earlier work
[3] = tested on: Pre-compacted 16- to 32-cell stage bovine embryos; details: 1 ng/ml PGF on days 4 to 6 (48 h culture)
Experimental: Pre-compacted 16- to 32-cell stage bovine embryos (day 4 post fertilization) are washed in KSOM-PVA and divided into four groups, each of which is cultured for 48 hours in KSOM-PVA containing one of the following: (1) 1000 nM AL-8810, n=95 (AL-8810 group); (2) 1 ng/ml PGF, n=91 (PGF group); (3) 1000 nM AL-8810+1 ng/ml PGF, n=90 (AL-8810+PGF group); or (4) KSOM-PVA without AL-8810 or PGF, n=84 (Control group).
Following the 48 hour culture, embryos from each group are placed in HEPES-TALP and embryonic development is assessed by a technician who is uninformed of the treatments of the embryos in each group. Embryos from each treatment group are washed in KSOM-PVA and transferred to a 4-well plate with KSOM-PVA for further culture until day 8 post fertilization, when embryonic development is again assessed.

[4] = tested on: compacted (in vivo-derived) morula stage embryos; assay: Culture of compacted (in vivo-derived) morula-stage embryos with PGF2α; assay type: cell-based, bovine; details: 0.1, 1 or 10 ng/mL PGF2α for 24 h
Experimental: In vivo-derived glycerol-frozen morula-stage bovine embryos are thawed utilizing a three-step glycerol removal procedure. After washing, embryos are allowed to regain normal morphology for 30 min in Vigro holding medium and are sorted by stage of development and quality according with the IETS guidelines for classification of bovine embryos. For this study, a total of 4 replicates are used.
Schrick, et al, Biol. Reprod. 49:617-621 (1993) reported 0.64 ng/mL of PGF2α in flush media from short cycle cows and a negative association of PGF2α concentration with embryo quality. Based on these findings, concentrations of 0 (control, KSOM-PVA), 0.1, 1, and 10 ng/mL of PGF2α in culture medium are selected as treatments. Each treatment is placed in a different well of a 4-well plate (500 μL/well) and then maintained in the incubator (5.5% CO2, 7% O2, and 87.5% N2 at 38.5° C.) for at least 5 h before placement of embryos to allow equilibration of medium. […]
Morula embryos (Stage 4) of quality grade 1, 2 or 3 are rapidly washed four times in KSOM-PVA and randomly assigned to one of four treatments: 1) control (n=110); 2) 0.1 ng/mL PGF2α (n=108); 3) 1 ng/mL PGF2α (n=109), 4) 10 ng/mL PGF2α (n=109) and are placed in the incubator (5.5% CO2, 7% O2, and 87.5% N2 at 38.5° C.). […] Data are analyzed as in Example 1.a.

CCCCC[C@H](O)/C=C/[C@H]1[C@H](O)CC(=O)[C@@H]1C/C=C\CCCC(=O)O [PGE2, Prostaglandin E2]
blastocyst development ([1]; 5 ng/mL PGE2 in medium, P>0.10): does not differ between control and PGE2 treatments

Cc1c(Nc2ncccc2C(=O)O)cccc1C(F)(F)F [flunixin meglamine]
pregnancy rates (recipient cattle): Pregnancy rates were significantly higher

prostaglandin F2α [PGF2α]
pregnancy rates ([2]; PGF2α administered between days 5 and 8 of pregnancy, vs saline controls): decreased pregnancy rates compared to saline controls | pregnancy rates ([2]; PGF2α administered on days 10 to 13 or days 15 to 18): no effect on pregnancy rates | percentage of embryos reaching blastocyst stage on day 8 [3]: decreases the percentage of embryos reaching blastocyst stage on day 8 | development at least two stages beyond morula (IETS guidelines) ([4]; then 48 h without, P>0.10): does not differ between treatments | hatching rates ([4]; vs control, P=0.05): decreased hatching rates when compared to control | blastocyst development ([1]; 1, 10 or 100 ng/mL PGF2α in medium, 4 days culture, P=0.002): reduced blastocyst development when compared to control
